Data reported in patent publication US20250213563A1, “SUBSTITUTED PYRIMIDIN-4(3H)-ONES FOR USE IN TREATING CANCER” (NAVIRE PHARMA, INC., priority 2021, published 2025).
“Also recorded” adds a separate entry of the source.

What was measured:
[1] = target: T1, phosphatase domain of human SHP2 (Homo sapiens, UniProt Q06124); assay: SHP2 enzymatic assay (DiFMUP), phosphatase domain; assay type: biochemical; conditions: at up to 50 μM
T1 construct: phosphatase domain of human SHP2 (amino acid Ala237-Ile529); 6xHis (TEV site) (N, cleaved yes); made in house; host or cells: E. coli BL21 (DE3)
T1 sequence (Q06124 237-529): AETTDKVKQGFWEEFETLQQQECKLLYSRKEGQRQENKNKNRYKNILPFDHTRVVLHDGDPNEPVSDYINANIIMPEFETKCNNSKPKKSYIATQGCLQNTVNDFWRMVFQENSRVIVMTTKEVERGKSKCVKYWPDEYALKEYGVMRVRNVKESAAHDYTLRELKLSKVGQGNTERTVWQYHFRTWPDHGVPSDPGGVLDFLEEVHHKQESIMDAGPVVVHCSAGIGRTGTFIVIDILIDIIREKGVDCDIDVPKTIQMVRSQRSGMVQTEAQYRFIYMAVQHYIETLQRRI
Method: Protein purification: The recombinant DNA for full-length human SHP2 (amino acid 1-597) or the phosphatase domain of human SHP2 (amino acid Ala237-Ile529) was cloned into a pET30 vector (Sigma #69909-3), which was modified to contain a TEV protease site after the N-terminal 6×His tag. The expression vector was transformed into E. coli BL21 (DE3) (NEB #C2527H). The protein was expressed and purified by the following procedure. Bacterial cells from a 50 mL overnight culture were inoculated in 6 L of terrific broth media. Once the E. coli culture reached an OD600 of 0.7, the temperature was lowered to 18° C. and recombinant protein expression was induced by the addition of 0.5 mM IPTG. After overnight incubation, the cells were harvested by centrifugation at […] for 45 min in a Sorvall Lynx 6000 (Thermo Fisher) centrifuge with F9-6×1000 LEX rotor. The cell pellets were stored at −80° C. until purification. […] The final product was 98% pure as determined by SDS-PAGE. The concentration of SHP2 protein was determined from the absorbance at 280 nm wavelength, using the calculated molar extinction coefficient for SHP2 protein of 72770 M^−1 cm^−1.
SHP2 enzymatic assay: Phosphatase activity of full-length human SHP2 wild-type enzyme or SHP2 phosphatase domain was measured using fluorogenic 6,8-difluoro-4-methylumbelliferyl phosphate (DiFMUP; Molecular Probes #D6567) as the substrate. […]

[2] = system: pERK in PBMC; assay: Phase 1/1B first-in-human study, PBMC pERK inhibition; assay type: in vivo
[3] = Single-dose pharmacokinetics, summary across species; assay type: in vivo; conditions: both sexes, CD-1, C57BL/6, Sprague Dawley, Beagle, mouse, rat, dog, monkey, plasma
Method: The pharmacokinetic (PK) parameters of Compound (10b) (freebase) were determined following single intravenous (IV) and oral (PO) administration in female CD-1 mouse, female C57BL/6 mouse (PO only), male Sprague Dawley rat, male Beagle dog, and male Cynomolgus monkey. Additional evaluation of the PK properties of Compound (10b) was obtained following single dose PO administration in female CD-1 mouse, male Sprague Dawley rat and male Beagle dog over a dose range spanning 10 to 300 mg/kg (mouse and rat) and 1 to 100 mg/kg (dog). The intravenous dose solutions were prepared in 20% DMSO-60% PEG400-20% water and the oral dose solutions as suspensions in 0.5% methylcellulose in water, unless otherwise noted. Plasma concentration profiles were generated from serial sampling in individual animals up to 24 hours post dose, except for the studies in mice where composite sampling methods were used (i.e. 3 sampling times per mouse; 9 mice per group). […] Exposures increased with increasing dose level across species, in a dose-proportional manner in mouse and dog, and in a greater than dose-proportional manner in rat (80× increase in AUC with a 30× increase in dosage).

[4] = system: General control nonderepressible 2 kinase (GCN2); assay: KINOMEscan competition binding; parameters: species or system human; conditions: 1 μM
Method: Activity of Compound (10b) (1 μM) was assessed against a panel of 419 human kinases (including a set of disease-relevant mutant variants). Assays were conducted using the KINOMEscan™ platform from DiscoverX which measures compound interaction with kinases using active site-directed competition binding assays. Displacement of ligand binding to the kinase by <35% of the control value is considered significant. Of the 419 kinases tested, only 4 kinases reached this level of displacement: Protein kinase C eta (PRKCH), 34% control; Large tumor suppressor kinase 1 (LATS1), 32% control; General control nonderepressible 2 kinase (GCN2), 21% control; and Hematopoietic Progenitor Kinase 1 (HPK1), 4.4% control.

In the case of `Cc1c(N2CCC3(CC2)CO[C@@H](C)[C@H]3N)nc(C)n(-c2cccc(Cl)c2Cl)c1=O` (atropisomer, axis not shown; (Ra)) [Compound (10b), 6-((3S,4S)-4-amino-3-methyl-2-oxa-8-azaspiro[4.5]decan-8-yl)-3-(Ra)-(2,3-dichlorophenyl)-2,5-dimethylpyrimidin-4(3H)-one], the “suppression of enzymatic activity of SHP2 phosphatase domain” value [1] is reported as “did not suppress; also recorded: does not suppress”, the inhibition at 550 mg ([2]; Homo sapiens, PBMC, 550 mg dose level, 24 h post dose) is reported as 90% and the “PBMC pERK inhibition” value ([2]; cohort 5 (550 mg), 4 hours post dose) is reported as about 95%. The Tmax ([3]; oral 1-100 mg/kg) was 0.25 to 3.67 h, the bioavailability ([3]; oral doses 3- to 30-fold higher than intravenous doses, read-out: apparent oral bioavailabilities) was 51.2 to 115% and the “ligand binding, % control” value [4] was 21 % control.
